The source of these data is US8796330B2, “Inhibitors of histone deacetylase and prodrugs thereof” (Methylgene Inc., priority 2006, dated 2014).

In brackets after ≈: the same amount, converted by molar mass. Read-outs that look alike come from different tables or passages of the source. Where only a bound is given, the exact number is not on record here.

Series [1] relates to histone deacetylase in nuclear extracts from H446 cells (pooled HDACs). Description: Inhibition of histone deacetylase in H446 nuclear extracts ([3H]-acetylated histone substrate). The format is biochemical, human. To be noted: H446 nuclear extract.
In series [2] the test system is acetylated histone H-4 in T24 human bladder cancer cells. Description: Histone H4 acetylation in whole cells by immunoblots. The format is cell-based. The conditions noted are these: T-24, read-out: EC50, concentration effective for increasing the acetylated H-4 signal by 50%, 16 hours incubation, immunoblot densitometry. Here is the method: T24 human bladder cancer cells growing in culture are incubated with HDAC inhibitors for 16 hours. […] of total histone protein are loaded onto SDS/PAGE and transferred to nitrocellulose membranes. Membranes are probed with polyclonal antibodies specific for acetylated histone H-4 (Upstate Biotech Inc.), followed by horse radish peroxidase conjugated secondary antibodies (Sigma). Enhanced Chemiluminescence (ECL) (Amersham) detection is performed using Kodak films (Eastman Kodak). Acetylated H-4 signal is quantified by densitometry.

The target of series [3] is recombinant human HDAC-1 enzyme (rHDAC-1) (Homo sapiens (Human), UniProt Q13547). Briefly: Inhibition of recombinant human HDAC-1 ([3H]-acetylated histone substrate). It is filed as biochemical. To be noted: Table 4, recombinant human HDAC-1.
The nature of series [4]: Solubility. The format is physicochemical.
The target of series [5] is rHDAC-1 (Homo sapiens (Human), UniProt Q13547). Description: Fluorogenic Boc-Lys(Ac)-AMC deacetylase assay (Table 4a), rHDAC-1. It is filed as biochemical. To be noted: for IC50: Boc-Lys(Ac)-AMC substrate, PI values = IC50 at maximum % inhibition reached; for rHDAC-1 partial inhibition (maximum % inhibition reached): PI = 100% inhibition not reached. Here is the method:
(§1) Alternatively (Table 4a), the following protocol is used to assay the compounds of the invention. In the assay, the buffer used is 25 mM HEPES, pH 8.0, 137 mM NaCl, 2.7 mM KCl, 1 mM MgCl2 and the substrate is Boc-Lys(Ac)-AMC in a 50 mM stock solution in DMSO. The enzyme stock solution is 4.08 μg/mL in buffer. The compounds are pre-incubated (2 μl in DMSO diluted to 13 μl in buffer for transfer to assay plate) with enzyme (20 μl of 4.08 μg/ml) for 10 minutes at room temperature (35 μl pre-incubation volume). The mixture is pre-incubated for 5 minutes at room temperature. The reaction is started by bringing the temperature to 37° C. and adding […] substrate. Total reaction volume is 50 μl. […] A plate is incubated in the dark for 10 minutes at room temperature before reading (λEx=360 nm, λEm=470 nm, Cutoff filter at 435 nm).

Series [6] addresses rHDAC-8 (Homo sapiens (Human), UniProt Q9BY41). Briefly: Fluorogenic Boc-Lys(Ac)-AMC deacetylase assay (Table 4a), rHDAC-8. The format is biochemical. To be noted: for IC50: Boc-Lys(Ac)-AMC substrate, PI values = IC50 at maximum % inhibition reached; for rHDAC-8 partial inhibition (maximum % inhibition reached): PI = 100% inhibition not reached. Here is the method:
as §1

Setting [7] is: Milli-Q purified water, read-out: Solubility Water.
[8] abbreviates: pH 2, simulated gastric fluid, read-out: Solubility pH 2.

recombinant human HDAC-1 enzyme (rHDAC-1), sequence (Q13547 whole entry): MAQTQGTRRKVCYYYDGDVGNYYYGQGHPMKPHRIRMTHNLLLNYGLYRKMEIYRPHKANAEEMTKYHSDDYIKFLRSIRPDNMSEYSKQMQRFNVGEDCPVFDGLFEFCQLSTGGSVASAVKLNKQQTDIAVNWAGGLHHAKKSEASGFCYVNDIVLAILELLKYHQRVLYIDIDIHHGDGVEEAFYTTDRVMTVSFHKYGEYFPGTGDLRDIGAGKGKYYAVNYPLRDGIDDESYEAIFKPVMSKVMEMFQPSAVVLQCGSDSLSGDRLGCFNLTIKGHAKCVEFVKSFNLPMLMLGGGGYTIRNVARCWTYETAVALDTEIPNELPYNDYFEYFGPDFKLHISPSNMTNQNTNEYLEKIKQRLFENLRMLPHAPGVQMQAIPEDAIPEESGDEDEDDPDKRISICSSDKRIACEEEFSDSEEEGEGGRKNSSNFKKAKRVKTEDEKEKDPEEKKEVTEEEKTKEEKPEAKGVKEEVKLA
rHDAC-1, sequence (Q13547 whole entry): as above
rHDAC-8, sequence (Q9BY41 whole entry): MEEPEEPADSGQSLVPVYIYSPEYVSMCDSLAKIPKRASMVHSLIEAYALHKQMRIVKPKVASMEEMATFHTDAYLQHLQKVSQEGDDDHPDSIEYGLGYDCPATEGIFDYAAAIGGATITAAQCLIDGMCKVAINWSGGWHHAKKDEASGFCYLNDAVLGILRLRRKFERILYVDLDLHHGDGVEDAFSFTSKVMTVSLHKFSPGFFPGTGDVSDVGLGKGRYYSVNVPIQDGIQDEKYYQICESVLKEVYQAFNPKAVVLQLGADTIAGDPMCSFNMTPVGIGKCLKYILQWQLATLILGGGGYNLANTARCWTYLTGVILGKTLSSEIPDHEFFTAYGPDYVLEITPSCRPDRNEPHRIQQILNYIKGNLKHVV

The compound `O=C(/C=C/c1ccc(NS(=O)(=O)c2ccccc2)cc1)NO` [Compound 36, N-Hydroxy-3-[4-(benzenesulfonylamino)-phenyl]-2-propenamide] registered an IC50 in series [1] of 0.5 µM. In series [2], the EC50 turned out to be 5 µM.

In the case of `COc1ccc(S(=O)(=O)Nc2ccc(/C=C/C(=O)NO)cc2)cc1OC` [Compound 90], the IC50 in series [1] is 0.4 µM. In series [2], the EC50 stood at 1 µM.

Take `CN(C)c1cccc2c(S(=O)(=O)Nc3ccc(/C=C/C(=O)NO)cc3)cccc12` [Compound 97]: the IC50 in series [1] was 0.8 µM; in series [3] it was 0.28 µM.

For the compound `O=C(/C=C/c1ccc(NS(=O)(=O)Cc2ccccc2)cc1)NO` [Compound 100], the IC50 came to 0.8 µM in series [1] and 0.75 µM in series [3].

Turning to `O=C(/C=C/c1ccc(NS(=O)(=O)c2ccc3oc4ccccc4c3c2)cc1)NO` [Compound 101], the figures for the IC50 in series [1] and in series [3] were 0.3 µM and 0.04 µM, respectively.

`O=C(/C=C/c1ccc(NS(=O)(=O)c2ccc(-c3cccs3)s2)cc1)NO` [Compound 103]: the IC50 in series [1] turned out to be 0.7 µM; in series [3], 0.05 µM.

On to `O=C(/C=C/c1ccc(NS(=O)(=O)c2ccc(Cl)cc2Cl)cc1)NO` [Compound 106], for which the values for the IC50 in series [1] and in series [3] were 0.8 µM and 0.3 µM, respectively.

Take `Nc1ccccc1NC(=O)/C=C/c1ccc(NS(=O)(=O)c2cccc3ccccc23)cc1` [Compound 107]: the “pooled HDACs percent inhibition” value in series [1] (@ 1 μM) amounted to 0% @ 1 μM. Moreover, the IC50 in series [3] stood at 5 µM. In addition, the EC50 in series [2] was found to be 5 µM.

As to `Cc1ccc(S(=O)(=O)Nc2ccc(/C=C/C(=O)NO)cc2)cc1` [Compound 108], in series [1] (@ 1 μM), the “pooled HDACs percent inhibition” value is on record as 10% @ 1 μM. In series [3], the IC50 was 0.3 µM.

Consider `O=C(/C=C/c1ccc(NS(=O)(=O)c2ccc(Cl)c(Cl)c2)cc1)NO` [Compound 109], for which the “pooled HDACs percent inhibition” value in series [1] (@ 1 μM) worked out at 32% @ 1 μM. Further, the IC50 in series [3] stood at 0.12 µM.

`CC(C)c1cc(C(C)C)c(S(=O)(=O)Nc2ccc(/C=C/C(=O)NO)cc2)c(C(C)C)c1` [Compound 110]: the IC50 was 0.7 µM in series [1] and 0.55 µM in series [3].

On to `O=C(/C=C/c1ccc(NS(=O)(=O)c2cc(Cl)cc(Cl)c2O)cc1)NO` [Compound 111], for which the values for the IC50 in series [1] and in series [3] were 0.4 µM and 0.095 µM, respectively.

For `COc1ccc(S(=O)(=O)Nc2ccc(/C=C/C(=O)NO)cc2)cc1` [Compound 113], the “pooled HDACs percent inhibition” value in series [1] (@ 1 μM) is 46% @ 1 μM. Also, the IC50 in series [3] came out at 0.2 µM.

For the compound `O=C(/C=C/c1ccc(NS(=O)(=O)c2ccc(-c3ccccc3)cc2)cc1)NO` [Compound 120], the IC50 was found to be 0.12 µM in series [1] and 0.01 µM in series [3]. Moreover, in series [2], the EC50 stood at 1 µM.

For `COc1ccc(S(=O)(=O)Nc2ccc(/C=C/C(=O)Nc3ccccc3N)cc2)cc1` [Compound 122], the EC50 in series [2] was determined as 2 µM.

Turning to `CC(C)(N)C(=O)ONC(=O)Cc1ccc(CCCCc2ccccc2)cc1.Cl` [Compound 174f, N-(2-amino-2-methylpropanoyloxy)-2-(4-(4-phenylbutyl)phenyl)acetamide hydrochloride], the solubility in series [4] (setting [7]) was 5 µM; in series [4] (setting [8]) it was 4 µM.

As for `Cl.NCC1(C(=O)ONC(=O)Cc2ccc(CCCCc3ccccc3)cc2)CC1` [Compound 174g, N-(1-(aminomethyl)cyclopropanecarbonyloxy)-2-(4-(4-phenylbutyl)phenyl)acetamide hydrochloride], the values for the solubility in series [4] (setting [7]) and in series [4] (setting [8]) were 195 µM and 132 µM, respectively.

Turning to `Nc1ccccc1NC(=O)c1ccc(CC(=O)c2ccccc2)o1` [Compound 178], in series [1] (@ 20 μM), the “pooled HDACs percent inhibition” value is 2% @ 20 μM. The IC50 in series [3] was greater than 20 µM.

`O=C(Cc1ccc(CCCCc2cc(F)c(F)cc2F)cc1)NO` [Compound 179, N-hydroxy-2-(4-(4-(2,4,5-trifluorophenyl)butyl)phenyl)acetamide]: the IC50 in series [5] was 0.5 µM; in series [6], 0.53 µM.

Regarding `O=C(Cc1ccc(CCCCc2ccc(C(F)(F)F)cc2)cc1)NO` [Compound 182, N-hydroxy-2-(4-(4-(4-(trifluoromethyl)phenyl)butyl)phenyl)acetamide], in series [5], the midpoint of inhibition, the IC50, lay at 0.7 µM and the “rHDAC-1 partial inhibition (maximum % inhibition reached)” value is listed as 64%. Moreover, in series [6], the half-inhibitory concentration (IC50) stood at 1.3 µM and the “rHDAC-8 partial inhibition (maximum % inhibition reached)” value is listed as 74%.

As for `O=C(Cc1ccc(CCCCc2ccc3[nH]ccc3c2)cc1)NO` [Compound 183, 2-(4-(4-(1H-indol-5-yl)butyl)phenyl)-N-hydroxyacetamide], the IC50 in series [5] was determined as 0.38 µM; in series [6], 0.41 µM.

As for `O=C(Cc1ccc(CCCCc2cccc(C(F)(F)F)c2)cc1)NO` [Compound 184, N-hydroxy-2-(4-(4-(3-(trifluoromethyl)phenyl)butyl)phenyl)acetamide], the IC50 in series [5] stood at 0.93 µM. Also, in series [6], the IC50 was 0.4 µM and the “rHDAC-8 partial inhibition (maximum % inhibition reached)” value stood at 79%.

Consider `O=C(Cc1ccc(CCCCc2ccccc2C(F)(F)F)cc1)NO` [Compound 185, N-hydroxy-2-(4-(4-(2-(trifluoromethyl)phenyl)butyl)phenyl)acetamide], for which the IC50 in series [5] was determined as 0.84 µM; in series [6], 0.61 µM.

For `O=C(Cc1ccc(CCCCc2ccc3c(c2)OCO3)cc1)NO` [Compound 187, 2-(4-(4-(benzo[d][1,3]dioxol-5-yl)butyl)phenyl)-N-hydroxyacetamide], in series [5], 0.2 µM corresponded to half-maximal inhibition (IC50) and the “rHDAC-1 partial inhibition (maximum % inhibition reached)” value is given as 62%. Further, the IC50 in series [6] came out at 0.21 µM.

`O=C(Cc1ccc(CCCCc2ccccc2)cc1)NO` [H]: the solubility in series [4] (setting [7]) and in series [4] (setting [8]) was 3 µM (≈ 0.85 µg/mL) each time.
